Test results as given in US6569906B1, “Composition containing a precursor capable of being hydrolysed by glucocerebrosidase” (Pierre Fabre Dermo-Cosmetique, priority 1998, dated 2003).

Assays:
glucocerebrosidase = target: T1, glucocerebrosidase (Homo sapiens, UniProt P04062); assay: Kinetics of hydrolysis of glucosylated precursors by glucocerebrosidase of a stratum corneum extract; format: biochemical; conditions: for Quantity of molecule released: phthalate buffer pH 5.6, 24 hours incubation, freeze-dried cutaneous extract, three strippings of 15 cm^2; for Release of the active agent from its glucosylated precursor: from the glucopyranoside precursor
T1 construct: a freeze-dried cutaneous extract obtained after taking a sample by three successive strippings of 15 cm^2; from tissue; host or cells: stratum corneum (powdered, freeze-dried cutaneous extract from three successive strippings)
T1 sequence (P04062 40-536): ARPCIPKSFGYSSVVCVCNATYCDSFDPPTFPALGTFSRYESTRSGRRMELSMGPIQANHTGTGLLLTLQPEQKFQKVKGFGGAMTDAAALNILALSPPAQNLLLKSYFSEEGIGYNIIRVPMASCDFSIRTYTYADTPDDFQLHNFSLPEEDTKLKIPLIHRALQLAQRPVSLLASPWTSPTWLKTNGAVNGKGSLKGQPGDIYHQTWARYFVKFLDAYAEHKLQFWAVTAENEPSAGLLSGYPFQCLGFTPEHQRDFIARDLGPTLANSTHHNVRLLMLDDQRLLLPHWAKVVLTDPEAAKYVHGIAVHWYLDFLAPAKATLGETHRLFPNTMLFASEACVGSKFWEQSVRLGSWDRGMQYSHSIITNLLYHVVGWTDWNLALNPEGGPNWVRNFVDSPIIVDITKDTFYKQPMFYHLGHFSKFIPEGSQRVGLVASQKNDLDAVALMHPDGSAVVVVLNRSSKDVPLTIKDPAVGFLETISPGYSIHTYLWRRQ
Procedure: The precursor and the stratum corneum sample in powdered form are incorporated into a liquid medium buffered with a phthalate buffer at pH 5.6. The mixture is incubated for 24 hours and the quantity of active agent released is assayed by densitometry on a thin-layer chromatography plate.
The following table gives, for various glucosylated precursors, the quantity of molecule released following their hydrolysis by glucocerebrosidase over 24 hours by a freeze-dried cutaneous extract obtained after taking a sample by three successive strippings of 15 cm^2.

[1] = Nonirradiated; cream containing 0.4%
Source text: The photostability of delta-tocopheryl-glucopyranoside and that of delta-tocopherol are compared.
Samples of a cream containing 0.4% of delta-tocopheryl-glucopyranoside or of delta-tocopherol are irradiated with a 28 J/cm^2 incident light of 290 to 800 nm (5 DEM).

[2] = Antioxidant activity against the peroxidation of squalene, MDA as indicator
Procedure: (§1) The concentration of MDA released is measured by complexing with thiobarbituric acid in an acidic medium. The chromogenic complex formed absorbs at 532 nm. Its quantification is monitored by fluorimetry.
The antioxidant activity of various compounds against the peroxidation of an unsaturated lipid, squalene, is measured.

[3] = MDA released in a cream with borage oil containing vitamin E after two hour solar exposure (thiobarbituric acid complex); conditions: for Concentration of MDA released: two hour solar exposure
Procedure: The concentration of malonaldehyde (MDA) released in a cream containing increasing quantities of an antioxidant, vitamin E (or alpha-tocopherol), which is subjected to an oxidative stress, is measured.
The cream containing vitamin E also contains borage oil which is naturally rich in linoleic acid. Oxidative stress consists in a two hour solar exposure.
as §1

| SMILES | Quantity of molecule released (glucocerebrosidase) [n mol/hour] | Quantity of MDA released [2] [μg MDA] | other results |
| --- | --- | --- | --- |
| Cc1cc(=O)oc2cc(OC3O[C@H](CO)[C@@H](O)[C@H](O)[C@H]3O)ccc12 (stereo partly shown) [4-methylumbelliferyl-glucopyranoside, 4-methylumbelliferyl glucopyranoside] | 100 ± 7 |  |  |
| Cc1cc(O)cc2c1O[C@](C)(CCC[C@H](C)CCC[C@H](C)CCCC(C)C)CC2 [Delta-tocopherol, delta-tocopherol] |  | 7.2 ± 1.7 | Amount of compound in the cream [1]: 310 ± 14 Micromoles |
| Cc1cc(O[C@@H]2O[C@H](CO)[C@@H](O)[C@H](O)[C@H]2O)cc2c1O[C@](C)(CCC[C@H](C)CCC[C@H](C)CCCC(C)C)CC2 [Delta-tocopherol-glucopyranoside] | 14.3 ± 1 | 128 ± 38 | Amount of compound in the cream [1]: 311 ± 7 Micromoles |
| OC[C@H]1OC(Oc2ccccc2)[C@H](O)[C@@H](O)[C@@H]1O (stereo partly shown) [Phenylglucopyranoside] | 0.2 ± 0.5 |  |  |
| CC(C)CCCC(C)CCCC(C)CCCC1(C)CCc2cc(OC3OC(CO)C(O)C(O)C3O)ccc2O1 (stereo not shown) [Tocol-glucopyranoside, tocol-glucopyranoside] | 14.8 ± 1.2 | 142 ± 28 |  |
| CC(C)CCCC(C)CCCC(C)CCCC1(C)CCc2cc(O)ccc2O1 (stereo not shown) [Tocol] |  | 6 ± 1.9 |  |
| CCCCCCCCCCCCCCCC(=O)Oc1c(C)c(C)c2c(c1C)CCC(C)(CCCC(C)CCCC(C)CCCC(C)C)O2 (stereo not drawn) [Vitamin E palmitate, alpha-tocopherol palmitate] |  | 182.7 ± 39 |  |
| Cc1c(C)c2c(c(C)c1O)CC[C@@](C)(CCC[C@H](C)CCC[C@H](C)CCCC(C)C)O2 [vitamin E, alpha-tocopherol] |  |  | Release of the active agent from its glucosylated precursor (glucocerebrosidase): not released; Concentration of MDA released ([3]; 0.05 % by mass vitamin E in the cream): 1.2 ± 0.15 μg MDA/100 mg cream; Concentration of MDA released ([3]; 0.1 % by mass vitamin E in the cream): 1.9 ± 0.20 μg MDA/100 mg cream; Concentration of MDA released ([3]; 0.15 % by mass vitamin E in the cream): 2.0 ± 0.20 μg MDA/100 mg cream; Pro-inflammatory effect ([3]; cream rich in polyunsaturated fatty acid): causes a pro-inflammatory effect |
| Cc1c(C)c2c(c(C)c1OC1O[C@H](CO)[C@@H](O)[C@H](O)[C@H]1O)CCC(C)(CCCC(C)CCCC(C)CCCC(C)C)O2 (stereo partly drawn) [α-Tocopheryl-glucopyranoside] | 0 |  |  |
| Cc1c(OC2O[C@H](CO)[C@@H](O)[C@H](O)[C@H]2O)cc2c(c1C)OC(C)(CCCC(C)CCCC(C)CCCC(C)C)CC2 (stereo partly shown) [γ-Tocopheryl-glucopyranoside] | 0 |  |  |
| Cc1c(O)cc2c(c1C)O[C@](C)(CCC[C@H](C)CCC[C@H](C)CCCC(C)C)CC2 [γ-tocopherol] |  |  | Release of the active agent from its glucosylated precursor (glucocerebrosidase): not released |
